What was measured:
human PPARgamma = target: T1, human PPARgamma (Homo sapiens, UniProt P37231); assay: cellular PPARgamma assay (transiently transfected HEK cells, luciferase reporter); type: cell-based; settings: GAL4-humanPPARgammaLBD
T1 construct: amino acids I152-Y475; expressed in transfected cells; host or cells: HEK cells, transient transfection of pcDNA3-GAL4-humanPPARgammaLBD
Text: Determination of EC50 values of PPAR agonists in the cellular PPARgamma assay
A transient transfection system is employed to determine the cellular PPARgamma activity of PPAR agonists. It is based on the use of a luciferase reporter plasmid (pGL3basic-5×GAL4-TK) and of a PPARgamma expression plasmid (pcDNA3-GAL4-humanPPARgammaLBD). Both plasmids are transiently transfected into human embryonic kidney cells (HEK cells). There is then expression in these cells of the fusion protein GAL4-humanPPARgammaLBD which binds to the GAL4 binding sites of the reporter plasmid. In the presence of a PPARgamma-active ligand, the activated fusion protein GAL4-humanPPARgammaLBD induces expression of the luciferase reporter gene, which can be detected in the form of a chemiluminescence signal after addition of a luciferase substrate. As a difference from the stably transfected PPARalpha reporter cell line, in the cellular PPARgamma assay the two components (luciferase reporter plasmid and PPARgamma expression plasmid) are transiently transfected into HEK cells because stable and permanent expression of the PPARgamma fusion protein is cytotoxic.
The luciferase reporter plasmid pGL3basic-5×GAL4-TK is based on the vector pGL3basic from Promega. The reporter plasmid is prepared by cloning five binding sites of the yeast transcription factor GAL4 (each binding site with the sequence 5′-CTCGGAGGACAGTACTCCG-3′), together with a 160 bp-long thymidine kinase promoter section (Genbank Accession #AF027128) 5′-upstream into pGL3basic. 3′-downstream of the thymidine kinase promoter is the complete luciferase gene from Photinus pyralis (Genbank Accession #M15077) which is already a constituent of the plasmid pGL3basic used. The cloning and sequencing of the reporter plasmid pGL3basic-5×GAL4-TK took place in analogy to the description in Sambrook J. et. al. (Molecular cloning, Cold Spring Harbor Laboratory Press, 1989).
The PPARgamma expression plasmid pcDNA3-GAL4-humanPPARgammaLBD was prepared by first cloning the cDNA coding for amino acids 1-147 of the yeast transcription factor GAL4 (Genbank Accession #P04386) into the plasmid pcDNA3 (from Invitrogen) 3′-downstream of the cytomegalovirus promoter. Subsequently, the cDNA of the ligand-binding domain (LBD) of the human PPARgamma receptor (amino acids I152-Y475; Accession #g1480099) 3′-downstream of the GAL4 DNA binding domain. Cloning and sequencing of the PPARgamma expression plasmid pcDNA3-GAL4-humanPPARgammaLBD again took place in analogy to the description in Sambrook J. et. al. (Molecular cloning, Cold Spring Harbor Laboratory Press, 1989). […]
The activity of PPARgamma agonists is determined in a 4-day assay which is described below. […]

human PPARdelta = target: T2, human PPARdelta (Homo sapiens, UniProt Q03181); assay: cellular PPARdelta assay (stably transfected HEK luciferase reporter cell line); type: cell-based; settings: GR-GAL4-humanPPARdelta-LBD
T2 construct: amino acids S139-Y441; expressed in transfected cells
T2 sequence (Q03181 139-441): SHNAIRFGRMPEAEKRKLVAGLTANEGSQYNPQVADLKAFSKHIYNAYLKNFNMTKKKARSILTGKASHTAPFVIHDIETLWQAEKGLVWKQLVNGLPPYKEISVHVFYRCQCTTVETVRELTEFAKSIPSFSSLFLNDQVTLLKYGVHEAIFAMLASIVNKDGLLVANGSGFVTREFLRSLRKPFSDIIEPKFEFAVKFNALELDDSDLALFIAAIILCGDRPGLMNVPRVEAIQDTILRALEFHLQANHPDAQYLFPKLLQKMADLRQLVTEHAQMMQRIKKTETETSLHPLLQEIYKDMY
Method: The assay plates are incubated in an incubator at 37° C. and 5% CO2 for 24 h. […]
The raw data from the luminometer are transferred into a Microsoft Excel file. Dose-effect plots and EC50 values of PPAR agonists are calculated using the XL.Fit program as specified by the manufacturer (IDBS).
The potency of substances which bind to human PPARdelta and activate it in an agonistic manner was analyzed through the determination of the EC50 values of PPAR agonists in the cellular PPARdelta assay using a stably transfected HEK cell line (HEK=human embryo kidney) which is referred to here as PPARdelta reporter cell line. In analogy to the assay described for PPARalpha, the PPARdelta reporter cell line also contains two genetic elements, a luciferase reporter element (pdeltaM-GAL4-Luc-Zeo) and a PPARdelta fusion protein (GR-GAL4-humanPPARdelta-LBD) which mediates expression of the luciferase reporter element depending on a PPARdelta ligand. The stably and constitutively expressed fusion protein GR-GAL4-humanPPARdelta-LBD binds in the cell nucleus of the PPARdelta reporter cell line via the GAL4 protein portion to the GAL4 DNA binding motifs 5′-upstream of the luciferase reporter element which is stably integrated in the genome of the cell line. There is only little expression of the luciferase reporter gene in the absence of a PPARdelta ligand if fatty acid-depleted fetal calf serum (cs-FCS) is used in the assay. PPARdelta ligands bind and activate the PPARdelta fusion protein and thereby stimulate expression of the luciferase reporter gene. The luciferase which is formed can be detected by means of chemiluminescence via an appropriate substrate.
The production of the stable PPARdelta reporter cell line is based on a stable HEK-cell clone which was stably transfected with a luciferase reporter element. This step was already described above in the section “construction of the PPARalpha reporter cell line”. […]
The activity of PPARdelta agonists is determined in a 3-day assay in exact analogy to the procedure already described for the PPARalpha reporter cell line except that the PPARdelta reporter cell line and a specific PPARdelta agonist was used as a standard to control test efficacy.

PPARdelta [1] = settings: obese, insulin resistant rhesus monkeys; cited from earlier work
PPARdelta [2] = settings: diabetic animal model; cited from earlier work

T1 sequence (P37231 with tags, fused parts or gaps isoform P37231-2 limits assumed): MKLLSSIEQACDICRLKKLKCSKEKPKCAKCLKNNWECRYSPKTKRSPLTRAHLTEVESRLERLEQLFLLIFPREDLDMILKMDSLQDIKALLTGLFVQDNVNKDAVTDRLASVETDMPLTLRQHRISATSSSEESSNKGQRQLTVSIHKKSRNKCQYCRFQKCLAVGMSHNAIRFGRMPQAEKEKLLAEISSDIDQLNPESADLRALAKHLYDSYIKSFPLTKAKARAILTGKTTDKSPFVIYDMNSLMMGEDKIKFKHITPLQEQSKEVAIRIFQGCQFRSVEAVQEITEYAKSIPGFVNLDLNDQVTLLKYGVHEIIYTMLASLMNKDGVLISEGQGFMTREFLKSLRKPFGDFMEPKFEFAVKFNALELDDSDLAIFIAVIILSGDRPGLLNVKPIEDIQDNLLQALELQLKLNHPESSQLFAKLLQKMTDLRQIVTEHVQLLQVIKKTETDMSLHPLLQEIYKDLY

| EC50 (human PPARgamma) [nM] | EC50 (human PPARdelta) [nM] | SMILES | further results |
| --- | --- | --- | --- |
| 230 | 240 | CCOc1cc(C(F)(F)F)ccc1C(=O)N[C@@H]1CCC[C@@H]1c1ccc(S(=O)(=O)Nc2nnc(C(C)C)s2)cc1 (relative stereo) [Example 3, 2-Ethoxy-N-{cis-2-[4-(5-isopropyl-[1,3,4]thiadiazol-2-ylsulfamoyl)-phenyl]-cyclopentyl}-4-trifluoromethyl-benzamide] |  |
|  |  | Cc1cc(SCc2sc(-c3ccc(C(F)(F)F)cc3)nc2C)ccc1OCC(=O)O [GW501516] | HDL-cholesterol (PPARdelta [1]): raises; insulin levels (PPARdelta [1]): decreases; plasma LDL-cholesterol (PPARdelta [1]): decreases; triglycerides (PPARdelta [1]): decreases |
| > 10000 | 120 | CCOc1cc(C(F)(F)F)ccc1C(=O)NCC1(c2ccc(S(=O)(=O)Nc3nnc(C(C)C)s3)cc2)CCCCC1 [Example 1, 2-Ethoxy-N-{1-[4-(5-isopropyl-[1,3,4]thiadiazol-2-ylsulfamoyl)-phenyl]-cyclohexylmethyl}-4-trifluoromethyl-benzamide] |  |
|  |  | CCCc1c(OCCCOc2ccc(OCC(=O)O)cc2)ccc(C(C)=O)c1O [Example L-165041] | plasma cholesterol (PPARdelta [2]): raises |
| 7 | 21 | CCOc1cc(C(F)(F)F)ccc1C(=O)NCC1(c2ccc(S(=O)(=O)Nc3nnc(C(C)C)s3)cc2)CCCC1 [Example 4, 2-Ethoxy-N-{1-[4-(5-isopropyl-[1,3,4]thiadiazol-2-ylsulfamoyl)-phenyl]-cyclopentylmethyl}-4-trifluoromethyl-benzamide] |  |
| 430 | 26 | CCOc1cc(C(F)(F)F)ccc1C(=O)N[C@@H]1CCC[C@H]1c1ccc(S(=O)(=O)Nc2nnc(C(C)C)s2)cc1 (relative stereo) [Example 2, 2-Ethoxy-N-{trans-2-[4-(5-isopropyl-[1,3,4]thiadiazol-2-ylsulfamoyl)-phenyl]-cyclopentyl}-4-trifluoromethyl-benzamide] |  |

Source: patent US7683181B2, “Cyclic N-[1,3,4]-thiadiazol-2-yl-benzene sulfonamides, pharmaceutical compositions and methods for the therapeutic use thereof” (Sanofi-aventis, priority 2005, dated 2010)
